# Measurements as given in ChEMBL document CHEMBL1147709, “Arylanthranilodinitriles: a new biaryl class of antileishmanial agents” (2006).
# Tests used:
# Type in all cases: functional
# Leishmania donovani [1] = test: Antileishmanial activity against Leishmania donovani amastigotes at 20 ug/ml
# Leishmania donovani [2] = test: Antileishmanial activity against Leishmania donovani promastigotes at 4 ug/ml
# Leishmania donovani [3] = test: Antileishmanial activity against Leishmania donovani promastigotes at 8 ug/ml
# Leishmania donovani [4] = test: Antileishmanial activity against Leishmania donovani promastigotes at 2 ug/ml
smiles,measurement,setting,value
COc1ccc(-c2c(C)c(C#N)c(N)c(C#N)c2SC)cc1OC,inhibition at 20 µg/mL,Leishmania donovani [1],53%
same,inhibition at 4 µg/mL,Leishmania donovani [2],60%
same,inhibition at 8 µg/mL,Leishmania donovani [3],69%
CSc1c(C)c(-c2ccc(Cl)cc2)c(C#N)c(N)c1C#N,inhibition at 20 µg/mL,Leishmania donovani [1],10%
same,inhibition at 4 µg/mL,Leishmania donovani [2],46%
same,inhibition at 8 µg/mL,Leishmania donovani [3],50%
CSc1c(C#N)c(N)c(C#N)c(C)c1-c1ccc(F)cc1,inhibition at 20 µg/mL,Leishmania donovani [1],62%
same,inhibition at 4 µg/mL,Leishmania donovani [2],43%
same,inhibition at 8 µg/mL,Leishmania donovani [3],65%
CSc1c(C)c(-c2ccccc2)c(C#N)c(N)c1C#N,inhibition at 20 µg/mL,Leishmania donovani [1],23%
same,inhibition at 4 µg/mL,Leishmania donovani [2],25%
same,inhibition at 8 µg/mL,Leishmania donovani [3],48%
CSc1c(C#N)c(N)c(C#N)c(C)c1-c1ccccc1F,inhibition at 20 µg/mL,Leishmania donovani [1],61%
same,inhibition at 4 µg/mL,Leishmania donovani [2],37%
same,inhibition at 8 µg/mL,Leishmania donovani [3],60%
COc1ccc(-c2c(C)c(C#N)c(N)c(C#N)c2SC)c(OC)c1,inhibition at 20 µg/mL,Leishmania donovani [1],56%
same,inhibition at 4 µg/mL,Leishmania donovani [2],36%
same,inhibition at 8 µg/mL,Leishmania donovani [3],59%
COc1ccc(-c2c(C)c(SC)c(C#N)c(N)c2C#N)cc1,inhibition at 20 µg/mL,Leishmania donovani [1],25%
same,inhibition at 4 µg/mL,Leishmania donovani [2],31%
same,inhibition at 8 µg/mL,Leishmania donovani [3],53%
CSc1c(C#N)c(N)c(C#N)c(C)c1-c1ccc(C(F)(F)F)cc1,inhibition at 20 µg/mL,Leishmania donovani [1],70%
same,inhibition at 4 µg/mL,Leishmania donovani [2],67%
same,inhibition at 8 µg/mL,Leishmania donovani [3],83%
N=C(N)c1ccc(OCCCCCOc2ccc(C(=N)N)cc2)cc1 [PENTAMIDINE],inhibition at 20 µg/mL,Leishmania donovani [1],48%
same,inhibition at 2 µg/mL,Leishmania donovani [4],71%
